Measured values as given in article PMC10669182, “Pyrazolo-triazolo-pyrimidine Scaffold as a Molecular Passepartout for the Pan-Recognition of Human Adenosine Receptors” (Biomolecules, 2023).
Where two headings read alike, the source gives them in different places.

Key:
[1] = molecular target: human A1 adenosine receptor; details: [3H]CCPA, geometric mean with 95% confidence limits, read-out: hA1 (Ki nM), cited from earlier work
[2] = molecular target: human A2A adenosine receptor; details: [3H]NECA, geometric mean with 95% confidence limits, read-out: hA2A (Ki nM), cited from earlier work
[3] = molecular target: human A3 adenosine receptor; details: [3H]NECA, geometric mean with 95% confidence limits, read-out: hA3 (Ki nM), cited from earlier work
[4] = molecular target: T1, human A2B adenosine receptor (Homo sapiens, UniProt P29275); experiment: Radioligand binding, displacement of [3H]ZM241385 at human A2B receptors expressed in CHO cells; details: 10 nM [3H]ZM241385, CHO cell membranes, 3 h room temperature; geometric mean with 95% confidence limits; reported for the first time; read-out: hA2B (Ki nM)
T1 construct: expressed in transfected cells; host or cells: CHO cells, stably transfected; membrane preparation
T1 sequence (P29275 1-332): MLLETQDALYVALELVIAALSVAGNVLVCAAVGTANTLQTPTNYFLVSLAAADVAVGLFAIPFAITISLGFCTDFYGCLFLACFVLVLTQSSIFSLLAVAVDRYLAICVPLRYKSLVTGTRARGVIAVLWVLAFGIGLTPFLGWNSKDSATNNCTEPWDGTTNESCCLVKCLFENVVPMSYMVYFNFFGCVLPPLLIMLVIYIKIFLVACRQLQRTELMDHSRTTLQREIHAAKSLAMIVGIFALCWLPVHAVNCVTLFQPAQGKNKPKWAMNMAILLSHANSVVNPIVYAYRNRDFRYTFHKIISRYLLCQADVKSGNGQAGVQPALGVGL
Protocol: All pharmacological methods followed the procedures described earlier. In brief, membranes for radioligand binding were prepared from CHO cells stably transfected with human adenosine receptor subtype (obtained as reported in reference) in a two-step procedure. In a first low-speed step (1000× g), cell fragments and nuclei were removed. The crude membrane fraction was sedimented from the supernatant at 100,000× g. The membrane pellet was resuspended in the buffer used for the respective binding experiments, frozen in liquid nitrogen, and stored at −80 °C.
Compounds were dissolved in DMSO and then diluted to the desired concentration in buffer, and at least 6 different concentrations were tested. DMSO in the final solution never exceeded 2%. For radioligand binding at A1 adenosine receptors, 1 nM [^3H]CCPA was used, whereas 30 and 10 nM [^3H]NECA were used for A2A and A3 receptors, respectively. Non-specific binding of [^3H]CCPA was determined in the presence of 1 mM theophylline; in the case of [^3H]NECA, 100 µM R-PIA was used. For radioligand binding assay of compounds 1–4 at A2B receptors, membranes (20 µg membrane protein) were incubated in a total volume of 200 µL (assay buffer: Tris/HCl pH 7.4, 10 mM MgCl2, 0.1% bovine serum albumin) with 10 nM [^3H]ZM241385. Non-specific binding of [^3H]ZM241385 was determined in the presence of 0.3 mM NECA. After 3 h at room temperature, samples were filtered and washed as described. Ki values from competition experiments were calculated with the program SCTFIT [32] and represented the mean of 3–6 replicates with 95% confidence limits.

hA2B adenosine receptor = molecular target: hA2B adenosine receptor; parameters: method as in PMID 19501513, PMID 19908874; details: NECA (5 μM)-stimulated adenylyl cyclase, hA2B-CHO membranes; geometric mean with 95% confidence limits; cited from earlier work
[5] = CHO cell membranes, compounds 1-7

| Structure (SMILES) | Ki ([1]; CHO cells, compounds 8-12) [nM] | Ki ([2]; CHO cells, compounds 8-12) [nM] | Ki ([3]; CHO cells, compounds 8-12) [nM] | Ki [4] [nM] | Ki [1, 5] [nM] | Ki [2, 5] [nM] | IC50 (hA2B adenosine receptor) [nM] | Ki [3, 5] [nM] |
| --- | --- | --- | --- | --- | --- | --- | --- | --- |
| Cn1cc2c(nc(N)n3nc(-c4ccco4)nc23)n1 [Compound 8] | 101 | 2.8 | 300 | – | – | – | – | – |
| CCCn1cc2c(nc(NC(=O)C(c3ccccc3)c3ccccc3)n3nc(-c4ccco4)nc23)n1 [Compound 3] | – | – | – | 13.3 | 80.2 | 46.5 | 491 | 0.93 |
| Cn1cc2c(nc(NC(=O)C(c3ccccc3)c3ccccc3)n3nc(-c4ccco4)nc23)n1 [Compound 1] | – | – | – | 29.1 | 139 | 216 | 363 | 0.25 |
| Cn1cc2c(nc(NC(=O)Cc3cccs3)n3nc(-c4ccco4)nc23)n1 [Compound 7] | – | – | – | – | 444 | 56 | > 10000 | 5.26 |
| CC(C)CCn1cc2c(nc(NC(=O)C(c3ccccc3)c3ccccc3)n3nc(-c4ccco4)nc23)n1 [Compound 5] | – | – | – | – | 441 | 159 | > 10000 | 5.86 |
| CCCCn1cc2c(nc(N)n3nc(-c4ccco4)nc23)n1 [Compound 11] | 14 | 1.6 | 600 | – | – | – | – | – |
| CCCn1cc2c(nc(N)n3nc(-c4ccco4)nc23)n1 [Compound 10] | 10 | 2.51 | 408 | – | – | – | – | – |
| CC(C)CCn1cc2c(nc(N)n3nc(-c4ccco4)nc23)n1 [Compound 12] | 2 | – | 700 | – | – | – | – | – |
| CCn1cc2c(nc(NC(=O)C(c3ccccc3)c3ccccc3)n3nc(-c4ccco4)nc23)n1 [Compound 2] | – | – | – | 18.3 | 156 | 131 | 745 | 0.98 |
| CCCCn1cc2c(nc(NC(=O)C(c3ccccc3)c3ccccc3)n3nc(-c4ccco4)nc23)n1 [Compound 4] | – | – | – | – | 129 | 114 | 780 | 1.2 |
| CCn1cc2c(nc(N)n3nc(-c4ccco4)nc23)n1 [Compound 9] | 5 | 1.95 | 331 | – | – | – | – | – |
| CCn1cc2c(nc(NC(=O)Cc3cccs3)n3nc(-c4ccco4)nc23)n1 [Compound 6] | – | – | – | – | 148 | 15.9 | > 10000 | 196 |
